Assay results as given in PMC5736709, “Unravelling the specificity and mechanism of sialic acid recognition by the gut symbiont Ruminococcus gnavus” (Nature Communications, 2017).
“And” between values parts separate entries of the source, which are not always exact repeats. Equal entries are not always repeated. “Also recorded” adds a separate entry of the source.

T1: RgCBM40 R128A (Mediterraneibacter gnavus (Ruminococcus gnavus), UniProt A7B557, R128A)
T1 sequence (A7B557 50-237 R128A): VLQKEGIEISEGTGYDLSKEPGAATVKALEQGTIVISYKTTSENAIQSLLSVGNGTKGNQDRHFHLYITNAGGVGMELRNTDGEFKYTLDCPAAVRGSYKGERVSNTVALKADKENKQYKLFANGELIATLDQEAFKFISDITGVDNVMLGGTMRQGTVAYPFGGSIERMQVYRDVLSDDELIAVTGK

T2: RgCBM40 R204A (Mediterraneibacter gnavus (Ruminococcus gnavus), UniProt A7B557, R204A)
T2 sequence (A7B557 50-237 R204A): T1 sequence (A7B557 50-237 R128A)

T3: RgCBM40 R128A/R204A (Mediterraneibacter gnavus (Ruminococcus gnavus), UniProt A7B557, R128A/R204A)
T3 sequence (A7B557 50-237 R128A/R204A): T1 sequence (A7B557 50-237 R128A)

T4: RgCBM40 Y210A (Mediterraneibacter gnavus (Ruminococcus gnavus), UniProt A7B557, Y210A)
T4 sequence (A7B557 50-237 Y210A): T1 sequence (A7B557 50-237 R128A)

T5: RgCBM40 Y116A (Mediterraneibacter gnavus (Ruminococcus gnavus), UniProt A7B557, Y116A)
T5 sequence (A7B557 50-237 Y116A): T1 sequence (A7B557 50-237 R128A)

T6: RgCBM40 E126A (Mediterraneibacter gnavus (Ruminococcus gnavus), UniProt A7B557, E126A)
T6 sequence (A7B557 50-237 E126A): T1 sequence (A7B557 50-237 R128A)

T7: RgCBM40 I95A (Mediterraneibacter gnavus (Ruminococcus gnavus), UniProt A7B557, I95A)
T7 sequence (A7B557 50-237 I95A): T1 sequence (A7B557 50-237 R128A)

B1: RgCBM40 (residues 50–237 of RgNanH), preparation for all other protein assays (ELISA) (domain or fragment, Ruminococcus gnavus ATCC 29149, UniProt A7B557 50-237, looked up)
chain: T1 sequence (A7B557 50-237 R128A)
notes: in the ELISA it was detected with anti-RgNanH antiserum

Experiments:
[1] = biological target: T1, RgCBM40 R128A; assay: ITC of sialoglycans binding to RgCBM40 mutant R128A; set-up: species or system Ruminococcus gnavus ATCC 29149
Experimental: (§1) Site directed mutagenesis of RgGH33 to introduce the D282A mutation in the active site was carried out using the QuikChange kit, following the manufacturer’s instructions, Agilent (Santa Clara, CA, USA). Site-directed mutants of RgCBM40; I95A, Y116A, E126A, R128A, R204A and double mutant R128A/R204A, were obtained from NZyTech (Lisbon, Portugal). The primers are listed in Supplementary Table 4. The integrity of the RgGH33 and RgCBM40 mutants was checked by circular dichroism (CD).
(§2) Isothermal titration calorimetry (ITC) experiments were performed using the PEAQ-ITC system (Malvern, Malvern, UK) with a cell volume of 200 µl. Prior to titration protein samples were exhaustively dialysed into PBS. The ligand was dissolved in the dialysis buffer. The cell protein concentration was 115 µM (except for mutant I95A where it was 173 µM and the wild-type interaction with 6′SL where it was 230 µM) and the syringe ligand concentration was 10 mM (25 mM for Neu5Ac). Controls with titrant (sugar) injected into buffer only were subtracted from the data. Analysis was performed using Malvern software, using a single-binding site model. The stoichiometry of binding sites was set to 1.0 as this was evident from the crystal structure. Quantitative and most qualitative experiments were carried out in triplicate.

[2] = biological target: T2, RgCBM40 R204A; assay: ITC of sialoglycans binding to RgCBM40 mutant R204A; set-up: species or system Ruminococcus gnavus ATCC 29149
Experimental: as §1, §2

[3] = test system: RgCBM40 binding to LS174T MUC2; assay: ELISA of RgCBM40 binding to LS174T MUC2 in competition with sugars; set-up: species or system Ruminococcus gnavus ATCC 29149; conditions: RgCBM40 preincubated with 1 mM free sugar overnight at 4 °C; immobilised LS174T MUC2; A450
Experimental: RgCBM40 binding to purified mucins was tested by ELISA. Mucins (100 μl of 10 μg ml^−1) were immobilised onto a high binding 96 well plate (Greiner, Stonehouse, UK) overnight at 4 °C. All subsequent steps were carried out for 1 h at room temperature. The plates were blocked with 3% (w/v) BSA, incubated with RgCBM40 (500 μg ml^−1), followed by an incubation with 1:5000 anti-RgNanH (raised in rabbit, Biogenes) then with 1:5000 anti-rabbit secondary antibody (raised in donkey) conjugated to peroxidase (GE Healthcare). Between each step, the plate was washed with 3 × 300 μl of PBS containing 0.05% (v/v) Tween 20 (PBST). Prior to detection, an additional wash step and 30 s incubation with PBST was carried out. Binding was detected using tetramethylbenzidine (TMB) visualisation solution (Biolegend, San Diego, CA, USA) which was incubated for 15 min. The reaction was stopped by addition of 2 M H2SO4 and absorbance measured at 450 nm using a plate-reader (Bench Marl Plus, Biorad), subtracting background readings at 570 nm. Negative controls including no RgCBM40 (subtracted from A450 value), no primary or no secondary antibody were carried out in parallel. For comparison between plates, values were normalised to the reading for LS174T MUC2 which was arbitrarily set at 100%. For enzymatic treatment of the mucin, LS174T MUC2 (2 mg ml^−1) was incubated with sialidases (2 µg ml^−1) overnight at 4 °C on a rotary wheel prior to immobilisation on the plate. For chemical treatment of mucin, LS174T MUC2 was incubated with 0.1 M trifluoroacetic acid (TFA) at 80 °C for 1 h, dialysed against ammonium bicarbonate (50 mM), lyophilised and redissolved in H2O. For the competition assays, RgCBM40 was incubated with 1 mM of free sugar overnight at 4 °C on a rotary wheel prior to addition to the ELISA plate as above. Experiments were carried out in triplicate.

[4] = biological target: T3, RgCBM40 R128A/R204A; assay: ITC of sialoglycans binding to RgCBM40 double mutant R128A/R204A; set-up: species or system Ruminococcus gnavus ATCC 29149
Experimental: as §1, §2

[5] = biological target: T4, RgCBM40 Y210A; assay: ITC of sialoglycans binding to RgCBM40 mutant Y210A; set-up: species or system Ruminococcus gnavus ATCC 29149
Experimental: as §2

[6] = biological target: T5, RgCBM40 Y116A; assay: ITC of sialoglycans binding to RgCBM40 mutant Y116A; set-up: species or system Ruminococcus gnavus ATCC 29149
Experimental: as §1, §2

[7] = biological target: T8, RgCBM40 (Mediterraneibacter gnavus (Ruminococcus gnavus), UniProt A7B557); assay: ITC of sialoglycans binding to RgCBM40 wild type; set-up: species or system Ruminococcus gnavus ATCC 29149; conditions: RgCBM40 WT
Experimental: as §2

[8] = biological target: T6, RgCBM40 E126A; assay: ITC of sialoglycans binding to RgCBM40 mutant E126A; set-up: species or system Ruminococcus gnavus ATCC 29149
Experimental: as §1, §2

[9] = biological target: T8, RgCBM40; assay: STD NMR of sialoglycans with RgCBM40 WT; set-up: species or system Ruminococcus gnavus ATCC 29149; conditions: 1 mM sialoglycan, 50 μM RgCBM40 WT, 288 K; 'exception' = monosaccharides for which binding was not detected
Experimental: ^1H and ^13C resonance assignment for all the sugars was performed on the bases of 1D ^1H, 2D DQF-COSY, TOCSY, HSQC and NOESY experiments run on the free ligands in unbuffered D2O, pH 7.0. For STD NMR experiments, all the samples consisted of 1 mM sialoglycans and 50 μM RgCBM40 (WT or I95A mutant) in D2O buffer solution of 10 mM Tris-d11 pH 7.8 and 100 mM NaCl (ligand: protein ratio 20:1). An STD pulse sequence that included 2.5 ms and 5 ms trim pulses and a 3 ms spoil gradient was used. Saturation was achieved applying a train of 50 ms Gaussian pulses (0.40 mW) on the f2 channel, at 0.60 p.p.m. (on-resonance experiments) and 40 p.p.m. (off-resonance experiments). The broad protein signals were removed using a 40 ms spinlock (T1ρ) filter. All the experiments were recorded at ^1H frequency of 800.23 MHz on a Bruker Avance III spectrometer equipped with a 5 mm probe TXI 800 MHz H-C/N-D-05 Z BTO, at 288 K. For all the sialoglycans in the presence of RgCBM40, an STD experiment with a saturation time of 2 s and a relaxation delay of 5 s was performed, as a first test for binding. For the confirmed binders, the STD NMR experiments were carried out at different saturation times (0.5, 1, 2, 3, 4 and 5 s) with 1 K scans and relaxation delay of 5 s, in order to obtain the binding epitope mapping. The resulting build-up curves for each proton were fitted mathematically to a mono-exponential equation (y = a×[1-exp(b×x)]), from which the initial slopes (a×b) were obtained. For each ligand, the binding epitope mapping was obtained by dividing the initial slopes by the one of the H7 proton of the corresponding sialic acid ring, to which an arbitrary value of 100% was assigned. This normalisation of the STD values allows the comparison across all the sialoglycans.

[10] = biological target: T7, RgCBM40 I95A; assay: ITC of sialoglycans binding to RgCBM40 mutant I95A; set-up: species or system Ruminococcus gnavus ATCC 29149; conditions: 173 µM protein, syringe 10 mM sugar (25 mM for Neu5Ac), * = estimate only
Experimental: as §1, §2

[11] = biological target: T9, LS174T MUC2 treated with trifluoroacetic acid or a sialidase to remove sialic acid (human (endogenous in LS174T), UniProt Q02817 21-5289, O-glycans with sialic acid removed by TFA or by a sialidase from C. perfringens, S. typhimurium, A. muciniphila or R. gnavus; reduced with dithiothreitol and alkylated with iodoacetamide); assay: ELISA; mucins (100 µl of 10 µg ml^-1) immobilised on a 96 well plate, RgCBM40 at 500 µg ml^-1 for 1 h at room temperature, detected with rabbit anti-RgNanH and a peroxidase-conjugated secondary antibody, A450; values normalised to LS174T MUC2 = 100%; conditions: both partners purified
T9 construct: MUC2, gel-forming mucin secreted by the human LS174T cell line; also called MUC2 treated chemically (TFA) or enzymatically with a sialidase (Cp, St, Am/Ak, Rg)

Molecule | Binding by ITC (in words) [1] | Kd ([1]; ITC) | Binding by ITC (in words) [2] | Kd ([2]; ITC) | Effect of free sugar on adherence of RgCBM40 to MUC2 [3] | Binding by ITC (in words) [4] | Kd ([4]; ITC) | Binding by ITC (in words) [5] | Kd ([5]; ITC) | Binding by ITC (in words) [6] | Kd ([6]; ITC) | Kd ([7]; Kd, ITC in PBS, 115-230 μM protein in cell, syringe 10 mM sugar (25 mM for Neu5Ac), * = estimate only, Kd too high to determine) | Binding to RgCBM40 (in words) [7] | Binding by ITC (in words) [8] | Kd ([8]; ITC) | Binding to RgCBM40 detected by STD NMR [9] | Kd [10] | binding result [11]
CC(=O)N[C@H]1[C@H]([C@H](O)[C@H](O)CO)OC(O)(C(=O)O)C[C@@H]1O (stereo partly drawn) [Neu5Ac, N-acetylneuraminic acid] | abolished | > 25 mM | abolished | > 25 mM | no effect | abolished | > 25 mM | abolished | > 25 mM | abolished | > 25 mM | ~21 mM and ~20 mM | weak binding | abolished | > 25 mM | exception; also recorded: no interaction was observed | ~23 mM | 
B1 |  |  |  |  |  |  |  |  |  |  |  |  |  |  |  |  |  | binds
